# PubChem BioAssay (NCI)
#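 Growth conditions: 96-well plates. Treatment: test compound, 48 hours, 5 concentrations. Analysis: linear interpolation between bracketing concentrations; unreached endpoints set to highest concentration. Abbreviation: GI50, concentration required for 50% inhibition of growth. TGI: total growth inhibition.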
# Assays:
# Assay in all cases: NCI-60 cell line screen, 48 h
# M14 melanoma = test system: M14 melanoma
# 786-0 renal = test system: 786-0 renal
# OVCAR-5 ovarian = test system: OVCAR-5 ovarian
# RPMI-8226 leukemia = test system: RPMI-8226 leukemia
# SK-MEL-28 melanoma = test system: SK-MEL-28 melanoma
# SW-620 colon = test system: SW-620 colon
# HOP-62 NSCLC = test system: HOP-62 NSCLC
# U251 CNS = test system: U251 CNS
# SN12C renal = test system: SN12C renal
# MOLT-4 leukemia = test system: MOLT-4 leukemia
# EKVX NSCLC = test system: EKVX NSCLC
# HT29 colon = test system: HT29 colon
# HL-60(TB) leukemia = test system: HL-60(TB) leukemia
# LOX IMVI melanoma = test system: LOX IMVI melanoma
# SR leukemia = test system: SR leukemia
# OVCAR-4 ovarian = test system: OVCAR-4 ovarian
# SF-539 CNS = test system: SF-539 CNS
# SF-268 CNS = test system: SF-268 CNS
# DMS 273 small cell lung = test system: DMS 273 small cell lung
# NCI-H23 lung = test system: NCI-H23 lung
# UACC-62 melanoma = test system: UACC-62 melanoma
# HOP-92 NSCLC = test system: HOP-92 NSCLC
# HCT-15 colon = test system: HCT-15 colon
# A549 NSCLC = test system: A549 NSCLC
# SNB-75 CNS = test system: SNB-75 CNS
# DLD-1 colon = test system: DLD-1 colon
# NCI-H226 lung = test system: NCI-H226 lung
# IGROV1 ovarian = test system: IGROV1 ovarian
# K-562 leukemia = test system: K-562 leukemia
# OVCAR-8 ovarian = test system: OVCAR-8 ovarian
# KM12 colon = test system: KM12 colon
# M19-MEL melanoma = test system: M19-MEL melanoma
# NCI-H522 lung = test system: NCI-H522 lung
# UACC-257 melanoma = test system: UACC-257 melanoma
# A498 renal = test system: A498 renal
# KM20L2 colon = test system: KM20L2 colon
# SF-295 CNS = test system: SF-295 CNS
# COLO 205 colon = test system: COLO 205 colon
# HCT-116 colon = test system: HCT-116 colon
# LXFL 529 NSCLC = test system: LXFL 529 NSCLC
# SNB-19 CNS = test system: SNB-19 CNS
# CCRF-CEM leukemia = test system: CCRF-CEM leukemia
# RXF 393 renal = test system: RXF 393 renal
# NCI-H460 lung = test system: NCI-H460 lung
# ACHN renal = test system: ACHN renal
# SK-MEL-5 melanoma = test system: SK-MEL-5 melanoma
smiles,measurement,setting,value
O=C([CH-]C(=O)C(F)(F)F)c1ccccc1.O=C([CH-]C(=O)C(F)(F)F)c1ccccc1.O=C([CH-]C(=O)C(F)(F)F)c1ccccc1.O=C([CH-]C(=O)C(F)(F)F)c1ccccc1.[Eu+3].c1ccncc1,GI50,M14 melanoma,9.52 µM
same,TGI,M14 melanoma,39.5 µM
same,GI50,786-0 renal,11.9 µM
same,TGI,786-0 renal,> 100 µM
same,GI50,OVCAR-5 ovarian,41 µM
same,TGI,OVCAR-5 ovarian,> 100 µM
same,GI50,RPMI-8226 leukemia,4.19 µM
same,TGI,RPMI-8226 leukemia,35.3 µM
same,GI50,SK-MEL-28 melanoma,14.3 µM
same,TGI,SK-MEL-28 melanoma,> 100 µM
same,GI50,SW-620 colon,11.9 µM
same,TGI,SW-620 colon,> 100 µM
same,GI50,HOP-62 NSCLC,8.37 µM
same,TGI,HOP-62 NSCLC,64 µM
same,GI50,U251 CNS,5.02 µM
same,TGI,U251 CNS,> 100 µM
same,GI50,SN12C renal,3.74 µM
same,TGI,SN12C renal,39.7 µM
same,GI50,MOLT-4 leukemia,4.26 µM
same,TGI,MOLT-4 leukemia,36.2 µM
same,GI50,EKVX NSCLC,11.4 µM
same,TGI,EKVX NSCLC,58.6 µM
same,GI50,HT29 colon,6.97 µM
same,TGI,HT29 colon,> 100 µM
same,GI50,HL-60(TB) leukemia,3.69 µM
same,TGI,HL-60(TB) leukemia,13.8 µM
same,GI50,LOX IMVI melanoma,5.78 µM
same,TGI,LOX IMVI melanoma,21 µM
same,GI50,SR leukemia,3.86 µM
same,TGI,SR leukemia,19.7 µM
same,GI50,OVCAR-4 ovarian,7.62 µM
same,TGI,OVCAR-4 ovarian,> 100 µM
same,GI50,SF-539 CNS,16 µM
same,TGI,SF-539 CNS,92.8 µM
same,GI50,SF-268 CNS,6.21 µM
same,TGI,SF-268 CNS,59.7 µM
same,GI50,DMS 273 small cell lung,8.87 µM
same,TGI,DMS 273 small cell lung,> 100 µM
same,GI50,NCI-H23 lung,3.7 µM
same,TGI,NCI-H23 lung,19.5 µM
same,GI50,UACC-62 melanoma,6.67 µM
same,TGI,UACC-62 melanoma,63.3 µM
same,GI50,HOP-92 NSCLC,9.02 µM
same,TGI,HOP-92 NSCLC,45.6 µM
same,GI50,HCT-15 colon,4.98 µM
same,TGI,HCT-15 colon,> 100 µM
same,GI50,A549 NSCLC,25.6 µM
same,TGI,A549 NSCLC,> 100 µM
same,GI50,SNB-75 CNS,6.71 µM
same,TGI,SNB-75 CNS,> 100 µM
same,GI50,DLD-1 colon,7.12 µM
same,TGI,DLD-1 colon,> 100 µM
same,GI50,NCI-H226 lung,15.6 µM
same,TGI,NCI-H226 lung,79 µM
same,GI50,IGROV1 ovarian,7.88 µM
same,TGI,IGROV1 ovarian,> 100 µM
same,GI50,K-562 leukemia,4.66 µM
same,TGI,K-562 leukemia,83 µM
same,GI50,OVCAR-8 ovarian,6.58 µM
same,TGI,OVCAR-8 ovarian,> 100 µM
same,GI50,KM12 colon,3.08 µM
same,TGI,KM12 colon,8.11 µM
same,GI50,M19-MEL melanoma,10 µM
same,TGI,M19-MEL melanoma,62.8 µM
same,GI50,NCI-H522 lung,2.8 µM
same,TGI,NCI-H522 lung,17.9 µM
same,GI50,UACC-257 melanoma,11.9 µM
same,TGI,UACC-257 melanoma,55.2 µM
same,GI50,A498 renal,18.4 µM
same,TGI,A498 renal,88.8 µM
same,GI50,KM20L2 colon,26.7 µM
same,TGI,KM20L2 colon,> 100 µM
same,GI50,SF-295 CNS,3.02 µM
same,TGI,SF-295 CNS,31 µM
same,GI50,COLO 205 colon,28.8 µM
same,TGI,COLO 205 colon,> 100 µM
same,GI50,HCT-116 colon,7.53 µM
same,TGI,HCT-116 colon,71 µM
same,GI50,LXFL 529 NSCLC,4.2 µM
same,TGI,LXFL 529 NSCLC,> 100 µM
same,GI50,SNB-19 CNS,4.33 µM
same,TGI,SNB-19 CNS,94.8 µM
same,GI50,CCRF-CEM leukemia,2.64 µM
same,TGI,CCRF-CEM leukemia,32.7 µM
same,GI50,RXF 393 renal,2.25 µM
same,TGI,RXF 393 renal,18.8 µM
same,GI50,NCI-H460 lung,5.62 µM
same,TGI,NCI-H460 lung,43.7 µM
same,GI50,ACHN renal,8.71 µM
same,TGI,ACHN renal,> 100 µM
same,GI50,SK-MEL-5 melanoma,11.2 µM
same,TGI,SK-MEL-5 melanoma,> 100 µM
